What was measured:
[1] = log P determination by HPLC on reversed-phase column (C18), EEC Directive 79/831 Annex V.A8, acidic (formic acid); assay type: physicochemical; conditions: HPLC method a), acetonitrile/water with formic acid
Protocol: ^1 The stated mass is the peak of the isotope pattern of the [M+H]^+ ion of the highest intensity; if the [M-H]^- ion was detected, the stated mass is identified with ^2. ^2 The stated mass is the peak of the isotope pattern of the [M-H]^- ion of the highest intensity. ^a) Note regarding the determination of the log P values and mass detection: The determination of the given log P values was carried out in accordance with EEC Directive 79/831 Annex V.A8 by HPLC (High Performance Liquid Chromatography) on a reversed-phase column (C18). […] Mass detection is effected by means of an […] system. ^b) Note regarding the determination of the retention time and mass detection: The stated retention times were determined on a reversed-phase column (C18) Shimadzu LCMS 2020; 50*3.0 Shimadzu shim-pack XR-ODS 2.2 micron; mobile phase A: water (0.05% TFA); mobile phase B: acetonitrile; linear gradient from 5% acetonitrile to 95% acetonitrile in 6.00 min, then 95% acetonitrile for a further 1.1 min; oven temperature 40° C.; flow rate: 1.0 ml/min. ^c) Note regarding the determination of the retention time and mass detection: Instrument: Waters ACQUITY SQD UPLC system; column. Waters Acquity UPLC HSS T3 1.8μ 50×1 mm; mobile phase A: 1 l of water+0.25 ml of 99% strength formic acid, mobile phase B: 1 l of acetonitrile+0.25 ml of 99% strength formic acid; gradient: 0.0 min 90% A→1.2 min 5% A→2.0 min 5% A oven: 50° C.; flow rate: 0.40 ml/min; UV detection: 208-400 nm. ^d) Note regarding the determination of the retention time and mass detection: […] The determination of the given log P values was carried out in accordance with EEC Directive 79/831 Annex V.A8 by HPLC (High Performance Liquid Chromatography) on a reversed-phase column (C18). […] Mass detection is effected by means of an […] system.

Tetranychus urticae [2] = experiment: Tetranychus urticae spray test, OP-resistant (bean plants); assay type: in vivo; conditions: 20 ppm, after 7 days
Spodoptera frugiperda = Spodoptera frugiperda spray test; assay type: in vivo; conditions: 100 g/ha, caterpillars on maize leaf discs, after 7 days
From the text: (§1) Solvent: 78.0 parts by weight of acetone

Phaedon cochleariae = Phaedon cochleariae spray test; conditions: 100 g/ha, larvae on Chinese cabbage leaf discs, after 7 days
Rhipicephalus sanguineus = Rhipicephalus sanguineus in vitro contact test with adult brown dog ticks; assay type: in vivo; conditions: application rate 5 μg/cm^2 (500 g/ha), after 48 h, adult ticks dead or moribund
Protocol: (§2) For the coating of the test tubes, 9 mg of active compound are first dissolved in 1 ml of acetone p.a. and then diluted to the desired concentration with acetone p.a. 250 μl of the solution are distributed homogeneously on the inner walls and the base of a 25 ml test tube by turning and rocking on an orbital shaker (rocking rotation at 30 rpm for 2 h). With 900 ppm active compound solution and internal surface 44.7 cm^2, given homogeneous distribution, an area-based dose of 5 μg/cm^2 is achieved.
After the solvent has evaporated off, the tubes are populated with 5-10 adult dog ticks (Rhipicephalus sanguineus), sealed with a perforated plastic lid and incubated in a horizontal position in the dark at room temperature and ambient humidity. After 48 h, efficacy is determined. To this end, the ticks are knocked to the floor of the tube and incubated on a hotplate at 45-50° C. for not more than 5 min. Ticks which remain motionless on the floor or move in such an uncoordinated manner that they are unable to deliberately avoid the heat by climbing upwards are considered to be dead or moribund.
An efficacy of 100% means that all the ticks were dead or moribund. 0% efficacy means that none of the ticks had been harmed.

Musca domestica = Musca domestica test; assay type: in vivo; conditions: 100 ppm, adult houseflies, after 2 days
From the text: (§3) Solvent: dimethyl sulphoxide
Vessels containing a sponge treated with sugar solution and the active compound preparation of the desired concentration are populated with 10 adult houseflies (Musca domestica).

Lucilia cuprina = Lucilia cuprina test; assay type: in vivo; conditions: 100 ppm, L1 larvae, after 2 days
Protocol: as §3
About 20 L1 larvae of the Australian sheep blowfly (Lucilia cuprina) are transferred into a test vessel containing minced horsemeat and the active compound preparation of the desired concentration.
After 2 days, the kill in % is determined.

Ctenocephalides felis [3] = experiment: Ctenocephalides felis oral test; assay type: in vivo; conditions: 100 ppm in citrated cattle blood, after 2 days
From the text: as §3
Dilution with citrated cattle blood gives the desired concentration.
About 20 unfed adult cat fleas (Ctenocephalides felis) are placed into a chamber which is closed at the top and bottom with gauze. A metal cylinder whose bottom end is closed with parafilm is placed onto the chamber. The cylinder contains the blood/active compound preparation, which can be imbibed by the fleas through the parafilm membrane.

Boophilus microplus = Boophilus microplus injection test; assay type: in vivo; conditions: 20 μg/animal, engorged adult female ticks, after 7 days
Protocol: as §3
1 μl of the active compound solution is injected into the abdomen of 5 engorged adult female cattle ticks (Boophilus microplus). The animals are transferred into dishes and kept in a climate-controlled room.
(§4) Efficacy is assessed after 7 days by laying of fertile eggs. Eggs which are not visibly fertile are stored in a climate-controlled cabinet until the larvae hatch after about 42 days. An efficacy of 100% means that none of the ticks has laid any fertile eggs; 0% means that all the eggs are fertile.

Amblyomma hebraeum = experiment: Amblyomma hebaraeum test (AMBYHE), tick nymphs immersion; assay type: in vivo; conditions: 100 ppm, after 42 days
Protocol: as §3
To produce a suitable active compound formulation, 10 mg of active compound are mixed with 0.5 ml of dimethyl sulphoxide, and the concentrate is diluted with water to the desired concentration.
Tick nymphs (Amblyomma hebraeum) are placed into perforated plastic beakers and immersed in the desired concentration for one minute. The ticks are transferred on filter paper into a Petri dish and stored in a climate-controlled cabinet.

Ctenocephalides felis [4] = experiment: Ctenocephalides felis in vitro contact test with adult cat fleas; assay type: in vivo; conditions: application rate 5 μg/cm^2 (500 g/ha), after 48 h, adult cat fleas dead or moribund
Protocol: as §2
After the solvent has evaporated off, the tubes are populated with 5-10 adult cat fleas (Ctenocephalides felis), sealed with a perforated plastic lid and incubated in a horizontal position at room temperature and ambient humidity. After 48 h, efficacy is determined. To this end, the test tubes are stood upright and the fleas are knocked to the base of the tube. Fleas which remain motionless at the base or move in an uncoordinated manner are considered to be dead or moribund.
100% efficacy means that all the fleas were dead or moribund. 0% efficacy means that no fleas were harmed.

[5] = system: cattle ticks (Boophilus microplus) Parkhurst strain, SP-resistant; experiment: Boophilus microplus dip test; assay type: in vivo; conditions: 100 ppm, engorged adult female ticks, after 7 days
Protocol: Test animals: cattle ticks (Boophilus microplus) Parkhurst strain, SP-resistant
as §3
10 mg of active compound are dissolved in 0.5 ml of dimethyl sulphoxide. For the purpose of producing a suitable formulation, the active compound solution is diluted with water to the concentration desired in each case.
This active compound preparation is pipetted into tubes. 8-10 engorged adult female cattle ticks (Boophilus microplus) are transferred into a further tube with holes. The tube is immersed into the active compound preparation, and all the ticks are completely wetted. After the liquid has run out, the ticks are transferred on filter discs into plastic dishes and stored in a climate-controlled room.
as §4

Tetranychus urticae [6] = experiment: Tetranychus urticae spray test, OP-resistant (bean leaf discs); assay type: in vivo; conditions: 100 g/ha, after 6 days
Protocol: as §1
(§5) After 6 days, the efficacy in % is determined.

Myzus persicae = Myzus persicae spray test; assay type: in vivo; conditions: 100 g/ha, Chinese cabbage leaf discs, after 6 days
Protocol: Solvent: 78 parts by weight of acetone
as §5

chromatographic logP [1] | Structure (SMILES) | efficacy (Tetranychus urticae [2]) [%] | efficacy (Spodoptera frugiperda) [%] | efficacy (Phaedon cochleariae) [%] | efficacy (Rhipicephalus sanguineus) [%] | efficacy (kill in %) (Musca domestica) [%] | efficacy (kill in %) (Lucilia cuprina) [%] | efficacy (kill in %) (Ctenocephalides felis [3]) [%] | efficacy (laying of fertile eggs) (Boophilus microplus) [%] | efficacy (kill in %) (Amblyomma hebraeum) [%] | efficacy (Ctenocephalides felis [4]) [%] | efficacy (laying of fertile eggs) [5] [%] | logP [1] | efficacy (Tetranychus urticae [6]) [%] | efficacy (Myzus persicae) [%]
4.06 | Cn1nc(C(F)(F)C(F)(F)F)c(C(F)(F)F)c1-c1cc(-c2ccc(Cl)c(C(=O)NC3CC3)c2)no1 [Iap-1, 2-chloro-N-cyclopropyl-5-{5-[1-methyl-3-(pentafluoroethyl)-4-(trifluoromethyl)-1H-pyrazol-5-yl]-1,2-oxazol-3-yl}benzamide] | 100 | 100 | 100 | 100 | 100 | 100 | 100 | 100 | 100 | 100 | 100 | – | – | –
– | Cn1nc(C(F)(F)C(F)(F)F)c(C(F)(F)F)c1-c1cc(-c2ccc(Cl)c(C(=O)NC3(C#N)CC3)c2)no1 [Iap-3] | – | 100 | 100 | 100 | 100 | 100 | 100 | 100 | – | 100 | – | 3.96 | 100 | –
4.02 | Cn1nc(C(F)(F)C(F)(F)F)c(C(F)(F)F)c1-c1coc(-c2ccc(Cl)c(C(=O)NC3(C#N)CC3)c2)c1 [Iac-1, 2-chloro-N-(1-cyanocyclopropyl)-5-{4-[1-methyl-3-(pentafluoroethyl)-4-(trifluoromethyl)-1H-pyrazol-5-yl]-2-furyl}benzamide] | – | 100 | 100 | – | 100 | 100 | 100 | 100 | 100 | 100 | 100 | – | 100 | –
– | Cn1nc(C(F)(F)C(F)(F)F)c(C(F)(F)F)c1-c1coc(-c2ccc(Cl)c(C(=O)NC3CC3)c2)c1 [Iac-3] | – | 100 | 100 | – | 100 | 100 | 100 | 100 | 100 | – | 100 | 4.08 | 100 | –
– | Cn1nc(C(F)(F)C(F)(F)F)c(C(F)(F)F)c1-c1csc(-c2ccc(Cl)c(C(=O)NC3CC3)c2)c1 [Iaf-1] | – | 100 | 100 | 100 | – | 100 | 100 | 100 | 100 | 100 | 100 | 4.31 | 100 | 90

From patent US10047076B2, “Halogen-substituted compounds” (BAYER CROPSCIENCE AKTIENGESELLSCHAFT, priority 2014, dated 2018)
